Test results reported in PMC3805590, “Isozyme-Specific Ligands for O-acetylserine sulfhydrylase, a Novel Antibiotic Target” (PLoS ONE, 2013).
“And” between values parts separate entries of the source, which are not always exact repeats. Equal values may be shown once.

What was measured:
OASS-B = molecular target: T1, OASS-B (Salmonella typhimurium, UniProt P29848); assay: Ligand binding affinity to OASS-B by PLP fluorescence titration; conditions: PLP fluorescence at 500 nm, excitation 412 nm, 100 mM Hepes pH 7.0, 20 °C
T1 construct: OASS-A and OASS-B were expressed and purified as previously described; made in house
T1 sequence (P29848 whole entry): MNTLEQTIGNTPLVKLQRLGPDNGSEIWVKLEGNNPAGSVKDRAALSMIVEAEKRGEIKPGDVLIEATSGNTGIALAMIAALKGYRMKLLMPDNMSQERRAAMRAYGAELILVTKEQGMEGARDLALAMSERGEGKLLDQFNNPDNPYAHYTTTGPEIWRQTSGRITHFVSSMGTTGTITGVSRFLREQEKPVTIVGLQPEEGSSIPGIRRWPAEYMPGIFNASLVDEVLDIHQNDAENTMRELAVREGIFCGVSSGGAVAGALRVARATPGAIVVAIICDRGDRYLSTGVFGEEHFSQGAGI
Description: (§1) OASS-A and OASS-B were expressed and purified as previously described. The binding affinity of selected ligands to OASS-A and OASS-B was determined by monitoring the increase in fluorescence emission of the bound PLP at 500 nm following excitation at 412 nm, [55]. Emission spectra were collected at increasing ligand concentrations in the presence of 0.05–1 µM OASS, 100 mM Hepes buffer, pH 7.0 at 20°C. DMSO and/or potassium hydroxide were added when needed to solubilize the compounds and pH was checked to be between 7 and 8.5. Spectra were corrected for the buffer contribution. Fluorescence measurements were carried out using a FluoroMax-3 fluorometer (HORIBA-Jobin Yvon), equipped with a thermostated cell-holder.
(§2) The dependence of fluorescence intensity at 500 nm on ligand concentration was fitted to a binding isotherm: [drawing 1] (1) where I is the fluorescence intensity at 500 nm in the presence of the ligand, I0 is the fluorescence intensity in the absence of ligand, Imax is the maximum fluorescence change at saturating ligand concentrations, [L] is the ligand concentration, and Kd is the dissociation constant of the OASS-ligand complex. This measurement is a direct determination of ligand dissociation constant in the absence of substrate, thus it coincides with Ki, independently from the inhibition mechanism.
(§3) A total of 12 compounds for OASS-A (Table 1) and 11 compounds for OASS-B (Table 2) predicted to be potential ligands were experimentally tested by determining their dissociation constants exploiting PLP fluorescence changes as a function of ligand concentration. The observed increases in coenzyme fluorescence and the concomitant blue shifts of the peaks upon ligand binding result from the closure of the active site – thus altering the coenzyme microenvironment, [55]. It is important to point out that the evaluated dissociation constants for these compounds correspond to their inhibition constants, Ki, because they occupy the enzyme active site, [19], and, therefore, are purely competitive inhibitors.

OASS-A = molecular target: T2, OASS-A (Salmonella typhimurium, UniProt P0A1E3); assay: Ligand binding affinity to OASS-A by PLP fluorescence titration; conditions: for Kd: PLP fluorescence at 500 nm, excitation 412 nm, 100 mM Hepes pH 7.0, 20 °C
T2 construct: OASS-A and OASS-B were expressed and purified as previously described; made in house
T2 sequence (P0A1E3 whole entry): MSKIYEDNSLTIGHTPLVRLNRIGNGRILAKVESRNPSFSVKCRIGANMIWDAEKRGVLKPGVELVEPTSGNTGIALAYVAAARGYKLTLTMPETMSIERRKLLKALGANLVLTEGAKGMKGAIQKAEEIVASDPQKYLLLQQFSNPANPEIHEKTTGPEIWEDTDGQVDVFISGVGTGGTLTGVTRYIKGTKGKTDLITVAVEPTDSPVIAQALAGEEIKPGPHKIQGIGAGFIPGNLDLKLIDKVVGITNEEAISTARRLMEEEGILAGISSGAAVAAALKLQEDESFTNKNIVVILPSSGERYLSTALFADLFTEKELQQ
Description: as §1, §2, §3

OASS = assay: Reaction or time-dependent inactivation of OASS by ligand; type: biochemical, Salmonella typhimurium; conditions: under the paper's experimental conditions
[1] = test system: S. typhimurium knock-out for cysteine synthase; parameters: method as in PMID 18957594; conditions: cysteine synthase knock-out vs wild type; cited from earlier work

CCC1([N+](=O)[O-])CN(CC(=O)O)CN(CC(=O)O)C1 [Compound 21]
Kd (OASS-B): > 1500 µM

O=C(O)CSc1nsc(SCC(=O)O)n1 [Compound 16]
Kd (OASS-B): > 1500 µM

Cc1nnc(NC(=O)c2c(C(=O)O)cccc2[N+](=O)[O-])s1 [Compound 10]
Kd (OASS-A): > 1500 µM

CC(C)CC(NC=C1C(=O)OC(C)(C)OC1=O)C(=O)O (centres unmarked) [Compound 12]
Kd (OASS-A): > 1500 µM | binding to OASS-A (in words) (OASS-A; fluorimetric titration): no binding was observed

CCn1ncc([N+](=O)[O-])c1C(=O)O [Compound 23]
Kd (OASS-B): > 1500 µM

CC1=C(C(=O)O)N2C(=O)C(NC(=O)c3nn(C)cc3[N+](=O)[O-])C2SC1 (centres unmarked) [Compound 8]
Kd (OASS-A): 732 ± 72 µM

O=C(O)C1CC=CCC1C(=O)NCc1ccncc1 (centres unmarked) [Compound 6]
Kd (OASS-A): 283 ± 19 µM

O=C(O)CNC(=O)CNC(=O)C1C2C=CC(C2)C1C(=O)O (centres unmarked) [Compound 1]
Kd (OASS-B): 50 ± 5 µM | Kd (OASS-A): 3.8 µM and < 100 µM and 3.7 µM

O=C(O)c1ccoc1CN1CCOCC1 [Compound 11]
Kd (OASS-A): > 1500 µM

O=C(O)/C=C(/Cl)CC(=O)O [Compound 13]
reaction or time-dependent inactivation of OASS (OASS): no reaction or time-dependent inactivation of OASS was observed | Kd (OASS-B): 33 ± 2 µM | Kd (OASS-A): 29 ± 3 µM

CC(C)C(NS(=O)(=O)c1cccs1)C(=O)O (centres unmarked) [Compound 3]
Kd (OASS-B): > 1500 µM | Kd (OASS-A): 95 ± 10 µM

O=C(O)C1CCCCN1S(=O)(=O)c1cccc([N+](=O)[O-])c1 (centres unmarked) [Compound 5]
Kd (OASS-A): 218 ± 61 µM

O=C(O)C1CC=CCC1C(=O)Nc1nncs1 (centres unmarked) [Compound 2]
Kd (OASS-B): > 1500 µM | Kd (OASS-A): 82 ± 18 µM

Cn1nnnc1Sc1ncccc1C(=O)O [Compound 14]
Kd (OASS-B): 810 ± 110 µM | Kd (OASS-A): > 1500 µM

CC(C)CC(NC(=O)c1ccco1)C(=O)O (centres unmarked) [Compound 7]
Kd (OASS-A): 558 ± 131 µM

O=C(O)c1cn(C2CC2)c2cc(N3CCNCC3)c(F)cc2c1=O [ciprofloxacin]
MIC lower than wild type bacterium [1]: 500 fold

CC1(C(=O)O)Cc2oncc2CC1C(=O)O (centres unmarked) [Compound 18]
Kd (OASS-B): > 1500 µM

O=C(O)CC(C(=O)O)c1ccccc1 (centres unmarked) [Compound 4]
Kd (OASS-A): 103 ± 9 µM

O=C(NC(Cc1ccccc1)C(=O)O)c1ccco1 (centres unmarked) [Compound 9]
Kd (OASS-A): 1300 ± 400 µM

C[S+]([O-])CCC(NS(=O)(=O)c1ccccc1)C(=O)O (centres unmarked) [Compound 22]
Kd (OASS-B): > 1500 µM

O=C(O)CCN(CCC(=O)O)S(=O)(=O)c1ccccc1 [Compound 19]
Kd (OASS-B): > 1500 µM

CC1(C)OC(=O)C(=CNC(CCC(=O)O)C(=O)O)C(=O)O1 (centres unmarked) [Compound 17]
Kd (OASS-B): > 1500 µM
